Results from US10329289B2, “6,7-dihydro-5H-pyrrolo[3,4-B]pyridin-5-one allosteric modulators of the M4 muscarinic acetylcholine receptor” (Merck Sharp & Dohme Corp., priority 2015, dated 2019).

biological target: T1, human M4 muscarinic acetylcholine receptor (Homo sapiens, UniProt P08173); test: human FLIPR-based M4 PAM assay (Ca2+ mobilization, CHO-K1 cells with human M4 receptor and Gαqi5); assay type: cell-based; conditions: acetylcholine at 20% of maximum response, read-out: M4 PAM IP
T1 construct: expressed in transfected cells; host or cells: CHO-K1
T1 sequence (P08173 1-479): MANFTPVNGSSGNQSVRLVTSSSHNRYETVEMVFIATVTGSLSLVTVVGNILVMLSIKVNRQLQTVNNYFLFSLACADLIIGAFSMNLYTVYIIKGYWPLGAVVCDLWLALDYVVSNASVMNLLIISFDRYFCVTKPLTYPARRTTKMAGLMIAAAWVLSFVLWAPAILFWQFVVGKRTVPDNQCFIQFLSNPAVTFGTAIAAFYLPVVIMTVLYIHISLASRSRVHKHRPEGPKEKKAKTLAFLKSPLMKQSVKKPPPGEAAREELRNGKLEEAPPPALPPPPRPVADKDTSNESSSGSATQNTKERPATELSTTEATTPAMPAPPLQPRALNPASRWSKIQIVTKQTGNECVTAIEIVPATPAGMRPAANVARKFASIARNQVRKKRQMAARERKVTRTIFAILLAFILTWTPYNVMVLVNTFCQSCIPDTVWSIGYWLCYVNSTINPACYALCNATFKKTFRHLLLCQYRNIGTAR
Outline: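 Calcium-mobilization (FLIPR) readout in dye-loaded CHO-K1 cells co-expressing human M4 receptor and Gαqi5. Potentiation measured against acetylcholine at a concentration giving 20% of maximal response, with an optional 70% addition; the reported value is the curve inflection point from a 4-parameter logistic fit.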

For Cc1cc2c(nc1N1[C@@H]3CC[C@H]1C[C@@H](Oc1ccc4c(cnn4C)c1)C3)CNC2=O [Example 100, 3-methyl-2-(endo-3-((1-methyl-1H-indazol-5-yl)oxy)-8-azabicyclo[3.2.1]octan-8-yl)-6,7-dihydro-5H-pyrrolo[3,4-b]pyridin-5-one], which EC50 is on record?
Its EC50 is 1030 nM.

With CCc1cc2c(nc1N1CCC(Oc3cccc(C#N)c3)CC1)CNC2=O [Example 93A, 3-((1-(3-ethyl-5-oxo-6,7-dihydro-5H-pyrrolo[3,4-b]pyridin-2-yl)piperidin-4-yl)oxy)benzonitrile] as the molecule, how does the EC50 read?
The EC50 was 148 nM.

Which EC50 does the source give for Cc1cc2c(nc1N1CCC(OCc3ccccn3)CC1)CNC2=O [Example 205A, 3-methyl-2-(4-(pyridin-2-ylmethoxy)piperidin-1-yl)-6,7-dihydro-5H-pyrrolo[3,4-b]pyridin-5-one] here?
The EC50 was 5630 nM.

How did the EC50 turn out when COCCN1Cc2nc(N3CCC(Oc4ccc5c(c4)COC5)CC3)c(C)cc2C1=O [Example 263A, 2-(4-((1,3-dihydro-2-benzofuran-5-yl)oxy)piperidin-1-yl)-6-(2-methoxyethyl)-3-methyl-6,7-dihydro-5H-pyrrolo[3,4-b]pyridin-5-one] was run?
Its EC50 is 40 nM.

Cc1cc2c(nc1N1CCC(OC[C@@]3(C)CC3(F)F)CC1)CNC2=O [Example 8A, (R)-2-(4-((2,2-difluoro-1-methylcyclopropyl)methoxy)piperidin-1-yl)-3-methyl-6,7-dihydro-5H-pyrrolo[3,4-b]pyridin-5-one] was tested. Which EC50 did it give?
The EC50 was 87 nM.

For Cc1cc2c(nc1N1CCC(Oc3ccc4ccc(=O)[nH]c4c3)CC1)CNC2=O [Example 128, 7-((1-(3-methyl-5-oxo-6,7-dihydro-5H-pyrrolo[3,4-b]pyridin-2-yl)piperidin-4-yl)oxy)quinolin-2(1H)-one], which EC50 is on record?
Its EC50 is 2370 nM.

With Cc1cc2c(nc1N1CC[C@@H](Oc3ccc4c(c3)COC4)[C@H](F)C1)[C@@H](CO)N(C)C2=O [Example 280A, (S)-2-((3R,4R)-4-((1,3-dihydro-2-benzofuran-5-yl)oxy)-3-fluoropiperidin-1-yl)-7-(hydroxymethyl)-3,6-dimethyl-6,7-dihydro-5H-pyrrolo[3,4-b]pyridin-5-one] as the molecule, how does the EC50 read?
The EC50 was 14 nM.

CCc1cc2c(nc1N1CC[C@@H](Oc3cccnc3)[C@@H](F)C1)CNC2=O (single isomer, unassigned) [Example 216, 3-ethyl-2-((3R,4S)- or (3S,4R)-3-fluoro-4-(pyridin-3-yloxy)piperidin-1-yl)-6,7-dihydro-5H-pyrrolo[3,4-b]pyridin-5-one] was tested. Which EC50 did it give?
Its EC50 is 888 nM.

How did the EC50 turn out when CC(=O)NCCOc1ccc(OC2CCN(c3nc4c(cc3C)C(=O)NC4)CC2)cn1 [Example 174, N-(2-((5-((1-(3-methyl-5-oxo-6,7-dihydro-5H-pyrrolo[3,4-b]pyridin-2-yl)piperidin-4-yl)oxy)pyridin-2-yl)oxy)ethyl)acetamide] was run?
The EC50 was 45 nM.

With Cc1cc2c(nc1N1CC[C@@H](Oc3ccc4c(c3)COC4)[C@@H](F)C1)[C@H](CO)N(C)C2=O [Example 277, (R)-2-((3S,4R)-4-((1,3-dihydro-2-benzofuran-5-yl)oxy)-3-fluoropiperidin-1-yl)-7-(hydroxymethyl)-3,6-dimethyl-6,7-dihydro-5H-pyrrolo[3,4-b]pyridin-5-one] as the molecule, how does the EC50 read?
Its EC50 is 3400 nM.

Which EC50 does the source give for Cc1cc2c(nc1N1CCC(Oc3cnn(C)c3)CC1)CNC2=O [Example 139, 3-methyl-2-(4-((1-methyl-1H-pyrazol-4-yl)oxy)piperidin-1-yl)-6,7-dihydro-5H-pyrrolo[3,4-b]pyridin-5-one] here?
The EC50 was 106 nM.

Cc1cc2c(nc1N1[C@@H]3CC[C@H]1C[C@H](Oc1ccc4c(cnn4C)c1)C3)CNC2=O [Example 98, 3-methyl-2-(exo-3-((1-methyl-1H-indazol-5-yl)oxy)-8-azabicyclo[3.2.1]octan-8-yl)-6,7-dihydro-5H-pyrrolo[3,4-b]pyridin-5-one] was tested. Which EC50 did it give?
The EC50 was 522 nM.

With CCc1cc2c(nc1N1CCC(Oc3cncc(C)c3)CC1)CNC2=O [Example 173A, 3-ethyl-2-(4-((5-methylpyridin-3-yl)oxy)piperidin-1-yl)-6,7-dihydro-5H-pyrrolo[3,4-b]pyridin-5-one] as the molecule, how does the EC50 read?
The EC50 was 207 nM.

Cc1cc2c(nc1N1CCC(Oc3ccc4c(c3)CN(C(=O)OC(C)(C)C)CC4)CC1)CNC2=O [Example 137, tert-butyl 7-((1-(3-methyl-5-oxo-6,7-dihydro-5H-pyrrolo[3,4-b]pyridin-2-yl)piperidin-4-yl)oxy)-3,4-dihydroisoquinoline-2(1H)-carboxylate] was tested. Which EC50 did it give?
The EC50 was 515 nM.

Cc1c(N2CCC(Oc3ccc4c(c3)CCOC4)CC2)nc2c(c1C)C(=O)N(C)[C@@H]2CO [Example 369, (S)-7-(hydroxymethyl)-2-(4-(isochroman-6-yloxy)piperidin-1-yl)-3,4,6-trimethyl-6,7-dihydro-5H-pyrrolo[3,4-b]pyridin-5-one] was tested. Which EC50 did it give?
Its EC50 is 57 nM.

For Cc1cc2c(nc1N1CCC(Oc3ccc4c(c3)CNC4)CC1)CNC2=O [Example 147, 2-(4-(isoindolin-5-yloxy)piperidin-1-yl)-3-methyl-6,7-dihydro-5H-pyrrolo[3,4-b]pyridin-5-one], which EC50 is on record?
The EC50 was 313 nM.

With Cc1cc2c(nc1N1CCC(Oc3ccccc3)CC1)CN(C1CC1)C2=O [Example 250, 6-cyclopropyl-3-methyl-2-(4-phenoxypiperidin-1-yl)-6,7-dihydro-5H-pyrrolo[3,4-b]pyridin-5-one] as the molecule, how does the EC50 read?
The EC50 was 149 nM.

Which EC50 does the source give for Cc1cc2c(nc1N1CCC(Oc3ccc4c(c3)COC4)CC1)[C@@H](CO)N(C)C2=O [Example 281, (S)-2-(4-((1,3-dihydro-2-benzofuran-5-yl)oxy)piperidin-1-yl)-7-(hydroxymethyl)-3,6-dimethyl-6,7-dihydro-5H-pyrrolo[3,4-b]pyridin-5-one] here?
Its EC50 is 23 nM.

For Cc1cc2c(nc1N1CCC(Oc3cccc(C=O)c3)CC1)CNC2=O [Example 308, 3-((1-(3-Methyl-5-oxo-6,7-dihydro-5H-pyrrolo[3,4-b]pyridin-2-yl)piperidin-4-yl)oxy)benzaldehyde], which EC50 is on record?
The EC50 was 176 nM.

For Cc1cc2c(nc1N1CCC(Oc3ccc4c(c3)OC[C@H]4CCO)CC1)CNC2=O [Example 154, (S)-2-(4-((3-(2-hydroxyethyl)-2,3-dihydrobenzofuran-6-yl)oxy)piperidin-1-yl)-3-methyl-6,7-dihydro-5H-pyrrolo[3,4-b]pyridin-5-one], which EC50 is on record?
Its EC50 is 128 nM.

How did the EC50 turn out when COCCN1Cc2nc(N3CCC(Oc4ccc5c(c4)COC5)CC3)c(C)c(C)c2C1=O [Example 260A, 2-(4-((1,3-dihydro-2-benzofuran-5-yl)oxy)piperidin-1-yl)-6-(2-methoxyethyl)-3,4-dimethyl-6,7-dihydro-5H-pyrrolo[3,4-b]pyridin-5-one] was run?
The EC50 was 43 nM.

With Cc1c(N2CCC(Oc3ccc4c(c3)COC4)CC2)nc2c(c1C)C(=O)N(C)[C@H]2CO (single isomer, unassigned) [Example 337B] as the molecule, how does the EC50 read?
Its EC50 is 867 nM.

With Cc1cc2c(nc1N1CCC(Oc3cncc(F)c3)CC1)CNC2=O [Example 103, 2-(4-((5-fluoropyridin-3-yl)oxy)piperidin-1-yl)-3-methyl-6,7-dihydro-5H-pyrrolo[3,4-b]pyridin-5-one] as the molecule, how does the EC50 read?
The EC50 was 138 nM.

With Cc1cc2c(nc1N1CCC(Oc3cnc4c(c3)COC4)CC1)[C@H](CO)N(C)C2=O [Example 277A, (R)-2-(4-((5,7-dihydrofuro[3,4-b]pyridin-3-yl)oxy)piperidin-1-yl)-7-(hydroxymethyl)-3,6-dimethyl-6,7-dihydro-5H-pyrrolo[3,4-b]pyridin-5-one] as the molecule, how does the EC50 read?
The EC50 was 30000 nM.

For Cc1cc2c(nc1N1CCC(Oc3cnc4c(c3)CC[C@@H]4O)CC1)CNC2=O (single isomer, unassigned) [Example 324C], which EC50 is on record?
Its EC50 is 1140 nM.

For Cc1c(N2CC[C@H](Oc3cnn(C)c3)C(F)(F)C2)nc2c(c1C)C(=O)NC2 [Example 336C, (S)-2-(3,3-difluoro-4-((l-methyl-1H-pyrazol-4-yl)oxy)piperidin-1-yl)-3,4-dimethyl-6,7-dihydro-5H-pyrrolo[3,4-b]pyridin-5-one], which EC50 is on record?
The EC50 was 33 nM.

How did the EC50 turn out when COc1ccc(OC2CCN(c3nc4c(cc3C)C(=O)N(C)[C@@H]4CO)CC2)cn1 (single isomer, unassigned) [Example 273B] was run?
Its EC50 is 23 nM.

Which EC50 does the source give for COc1ccc(OC2CCN(c3nc4c(c(C)c3C)C(=O)N(C)[C@H]4CO)CC2)cn1 [Example 344A, (R)-7-(hydroxymethyl)-2-(4-((6-methoxypyridin-3-yl)oxy)piperidin-1-yl)-3,4,6-trimethyl-6,7-dihydro-5H-pyrrolo[3,4-b]pyridin-5-one] here?
Its EC50 is 760 nM.

Cc1cc2c(nc1N1CCC(Oc3ccc4c(c3)COC4(C)C)CC1)CNC2=O [Example 126, 2-(4-((1,1-dimethyl-1,3-dihydro-2-benzofuran-5-yl)oxy)piperidin-1-yl)-3-methyl-6,7-dihydro-5H-pyrrolo[3,4-b]pyridin-5-one] was tested. Which EC50 did it give?
The EC50 was 216 nM.

Which EC50 does the source give for Cc1cc2c(nc1N1CC[C@@H](Oc3ccc4c(c3)COC4)[C@@H](F)C1)[C@@H](CO)N(C)C2=O [Example 278, (S)-2-((3S,4R)-4-((1,3-dihydro-2-benzofuran-5-yl)oxy)-3-fluoropiperidin-1-yl)-7-(hydroxymethyl)-3,6-dimethyl-6,7-dihydro-5H-pyrrolo[3,4-b]pyridin-5-one] here?
Its EC50 is 19 nM.

For Cc1cc2c(nc1N1CCC(Oc3ccc(F)c(F)c3)CC1)[C@@H](CO)N(C)C2=O [Example 347, (S)-2-(4-(3,4-difluorophenoxy)piperidin-1-yl)-7-(hydroxymethyl)-3,6-dimethyl-6,7-dihydro-5H-pyrrolo[3,4-b]pyridin-5-one], which EC50 is on record?
The EC50 was 28 nM.

With COc1ccc(OC2[C@@H]3C[C@H]2CN(c2nc4c(cc2C)C(=O)NC4)C3)cn1 (single isomer, unassigned) [Example 185B] as the molecule, how does the EC50 read?
Its EC50 is 2530 nM.
